The values below come from US20100144700A1, “HETEROCYCLIC-CARBONYL-DIAZABICYCLOALKANES AS MODULATORS OF THE NEURONAL NICOTINIC ACETYLCHOLINE ALPHA 4 BETA 2, SUBTYPE RECEPTOR FOR THE TREATMENT OF CNS RELATED DISORDERS” (TARGACEPT, INC., priority 2007, published 2010).

Assay [1] can be described thus: NOR (novel object recognition) task in rats. Format: in vivo, rat. The conditions noted are these: treated orally, 0.03 mg/kg. The method, then: FIG. 1 is a chart showing the results of a study on object recognition in rats treated orally with (1S,5S)-3-(5-bromofuran-2-ylcarbonyl)-3,6-diazabicyclo[3.2.1]octane. The results are shown as a function of recognition index (%) versus dose (mg/kg).
Certain exemplified compounds were assessed in the NOR (novel object recognition) task. Thus, (1S,5S)-3-(5-bromofuran-2-ylcarbonyl)-3,6-diazabicyclo[3.2.1]octane (FIG. 1) was active in NOR in rats, at 0.03 mg/kg. This provides evidence of the efficacy (and potency) of the compounds of the present invention in treating cognitive deficits, attentional disorders and dementias, and the potential of these compounds for human therapy.

In assay [2] the target is Human α4β2 (Homo sapiens, UniProt P17787+P43681). Description: Binding at human α4β2 subtype (Table 1).
Assay [3] deals with T1, α7 nAChR Subtype (Rattus norvegicus, UniProt Q05941).
T1 construct: The hippocampus was removed and placed in 10 volumes (weight:volume) of ice-cold preparative buffer; from tissue; host or cells: rat hippocampus membranes
Description: Radioligand binding ([3H]MLA) at α7 nAChR subtype, rat hippocampus membranes; HTS at 5 μM. The conditions noted are these: 5 μM compound, 5 nM 3H-MLA; read-out: α7 high throughput screening (HTS) binding. The method, then: Rats (female, Sprague-Dawley), weighing 150-250 g, were maintained on a 12 h light/dark cycle and were allowed free access to water and food supplied by PMI Nutrition International, Inc. Animals were anesthetized with 70% CO2, then decapitated. Brains were removed and placed on an ice-cold platform. The hippocampus was removed and placed in 10 volumes (weight:volume) of ice-cold preparative buffer (137 mM NaCl, 10.7 mM KCl, 5.8 mM KH2PO4, 8 mM Na2HPO4, 20 mM HEPES (free acid), 5 mM iodoacetamide, 1.6 mM EDTA, pH 7.4); PMSF, dissolved in methanol to a final concentration of 100 μM, was added and the tissue suspension was homogenized by Polytron. The homogenate was centrifuged at 18,000×g for 20 min at 4° C. and the resulting pellet was re-suspended in 10 volumes of ice-cold water. After 60 min incubation on ice, a new pellet was collected by centrifugation at 18,000×g for 20 min at 4° C. The final pellet was re-suspended in 10 volumes of buffer and stored at −20° C. On the day of the assay, tissue was thawed, centrifuged at 18,000×g for 20 min, and then re-suspended in ice-cold PBS (Dulbecco's Phosphate Buffered Saline, 138 mM NaCl, 2.67 mM KCl, 1.47 mM KH2PO4, 8.1 mM Na2HPO4, 0.9 mM CaCl2, 0.5 mM MgCl2, Invitrogen/Gibco, pH 7.4) to a final concentration of approximately 2 mg protein/mL. Protein was determined by the method of Lowry et al., J. Biol. Chem. 193: 265 (1951), using bovine serum albumin as the standard.
The binding of [^3H]MLA was measured using a modification of the methods of Davies et al., Neuropharmacol. 38: 679 (1999). [^3H]MLA (Specific Activity=25-35 Ci/mmol) was obtained from Tocris. The binding of [^3H]MLA was determined using a 2 h incubation at 21° C. Incubations were conducted in 48-well micro-titre plates and contained about 200 μg of protein per well in a final incubation volume of 300 μL. The incubation buffer was PBS and the final concentration of [^3H]MLA was 5 nM. The binding reaction was terminated by filtration of the protein containing bound ligand onto glass fiber filters (GF/B, Brandel) using a Brandel Tissue Harvester at room temperature. Filters were soaked in de-ionized water containing 0.33% polyethyleneimine to reduce non-specific binding. Each filter was washed with PBS (3×1 mL) at room temperature. Non-specific binding was determined by inclusion of 50 μM non-radioactive MLA in selected wells.
[…] Each concentration was replicated in triplicate. […] […] Pharmacol. 22: 3099-3108 (1973).

The target of assay [4] is T2, α4β2 nAChR Subtype (Rattus norvegicus, UniProt P09483+P12390).
T2 construct: The cerebral cortex was removed and placed in 20 volumes (weight:volume) of ice-cold preparative buffer; from tissue; host or cells: rat cerebral cortex membranes
Description: Radioligand binding ([3H]nicotine) at rat α4β2 nAChR subtype, rat cerebral cortex membranes. As to the method:
Rats (female, Sprague-Dawley), weighing 150-250 g, were maintained on a 12 h light/dark cycle and were allowed free access to water and food supplied by PMI Nutrition International, Inc. Animals were anesthetized with 70% CO2, then decapitated. Brains were removed and placed on an ice-cold platform. The cerebral cortex was removed and placed in 20 volumes (weight:volume) of ice-cold preparative buffer (137 mM NaCl, 10.7 mM KCl, 5.8 mM KH2PO4, 8 mM Na2HPO4, 20 mM HEPES (free acid), 5 mM iodoacetamide, 1.6 mM EDTA, pH 7.4); PMSF, dissolved in methanol to a final concentration of 100 μM, was added and the suspension was homogenized by Polytron. The homogenate was centrifuged at 18,000×g for 20 min at 4° C. and the resulting pellet was re-suspended in 20 volumes of ice-cold water. After 60 min incubation on ice, a new pellet was collected by centrifugation at 18,000×g for 20 min at 4° C. The final pellet was re-suspended in 10 volumes of buffer and stored at −20° C. On the day of the assay, tissue was thawed, centrifuged at 18,000×g for 20 min, and then re-suspended in ice-cold PBS (Dulbecco's Phosphate Buffered Saline, 138 mM NaCl, 2.67 mM KCl, 1.47 mM KH2PO4, 8.1 mM Na2HPO4, 0.9 mM CaCl2, 0.5 mM MgCl2, Invitrogen/Gibco, pH 7.4) to a final concentration of approximately 4 mg protein/mL. Protein was determined by the method of Lowry et al., J. Biol. Chem. 193: 265 (1951), using bovine serum albumin as the standard.
The binding of [^3H]nicotine was measured using a modification of the methods of Romano et al., Science 210: 647 (1980) and Marks et al., Mol. Pharmacol. 30: 427 (1986). The [^3H]nicotine (Specific Activity=81.5 Ci/mmol) was obtained from NEN Research Products. The binding of [^3H]nicotine was measured using a 3 h incubation at 4° C. Incubations were conducted in 48-well micro-titre plates and contained about 400 μg of protein per well in a final incubation volume of 300 μL. The incubation buffer was PBS and the final concentration of [^3H]nicotine was 5 nM. The binding reaction was terminated by filtration of the protein containing bound ligand onto glass fiber filters (GF/B, Brandel) using a Brandel Tissue Harvester at 4° C. Filters were soaked in de-ionized water containing 0.33% polyethyleneimine to reduce non-specific binding. Each filter was washed with ice-cold buffer (3×1 mL). Non-specific binding was determined by inclusion of 10 μM non-radioactive L-nicotine (Acros Organics) in selected wells.
The inhibition of [^3H]nicotine binding by test compounds was determined by including seven different concentrations of the test compound in selected wells. Each concentration was replicated in triplicate. IC50 values were estimated as the concentration of compound that inhibited 50 percent of specific [^3H]nicotine binding. Inhibition constants (Ki values), reported in nM, were calculated from the IC50 values using the method of Cheng et al., Biochem. Pharmacol. 22: 3099 (1973).

The mark [5] stands for this setting: [3H]nicotine 5 nM, rat cortex, read-out: Rat α4β2 Ki.

Where two headings read alike, the source gives them in different places.

T2 sequence (P09483 31-630): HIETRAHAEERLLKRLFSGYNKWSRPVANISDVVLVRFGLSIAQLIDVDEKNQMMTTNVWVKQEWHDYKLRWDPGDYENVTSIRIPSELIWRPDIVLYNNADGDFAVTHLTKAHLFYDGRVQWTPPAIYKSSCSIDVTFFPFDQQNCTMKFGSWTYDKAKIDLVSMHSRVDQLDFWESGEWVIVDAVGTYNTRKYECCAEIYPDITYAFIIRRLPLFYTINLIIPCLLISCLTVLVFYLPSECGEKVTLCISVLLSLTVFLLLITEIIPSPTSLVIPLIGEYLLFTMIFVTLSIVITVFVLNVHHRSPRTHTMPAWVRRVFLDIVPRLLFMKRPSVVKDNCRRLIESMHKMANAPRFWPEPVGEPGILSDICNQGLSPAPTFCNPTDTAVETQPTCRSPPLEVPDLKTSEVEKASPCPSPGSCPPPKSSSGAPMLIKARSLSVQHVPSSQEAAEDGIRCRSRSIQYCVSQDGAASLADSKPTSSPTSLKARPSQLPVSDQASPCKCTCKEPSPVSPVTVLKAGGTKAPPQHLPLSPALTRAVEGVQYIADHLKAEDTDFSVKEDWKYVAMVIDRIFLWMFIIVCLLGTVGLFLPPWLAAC
T2 sequence (P12390 25-500): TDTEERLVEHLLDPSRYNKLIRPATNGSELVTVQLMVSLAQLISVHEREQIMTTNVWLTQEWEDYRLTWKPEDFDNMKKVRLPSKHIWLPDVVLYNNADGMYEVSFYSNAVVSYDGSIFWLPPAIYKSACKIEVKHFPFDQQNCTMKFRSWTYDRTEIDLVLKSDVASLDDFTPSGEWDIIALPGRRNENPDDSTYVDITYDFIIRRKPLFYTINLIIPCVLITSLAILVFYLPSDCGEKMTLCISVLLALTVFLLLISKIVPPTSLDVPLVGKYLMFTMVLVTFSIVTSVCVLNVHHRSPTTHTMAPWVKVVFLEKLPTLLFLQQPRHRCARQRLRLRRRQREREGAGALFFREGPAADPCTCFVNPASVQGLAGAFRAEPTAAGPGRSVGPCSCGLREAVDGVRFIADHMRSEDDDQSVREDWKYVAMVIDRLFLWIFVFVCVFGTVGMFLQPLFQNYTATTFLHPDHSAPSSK
T1 sequence (Q05941 23-502): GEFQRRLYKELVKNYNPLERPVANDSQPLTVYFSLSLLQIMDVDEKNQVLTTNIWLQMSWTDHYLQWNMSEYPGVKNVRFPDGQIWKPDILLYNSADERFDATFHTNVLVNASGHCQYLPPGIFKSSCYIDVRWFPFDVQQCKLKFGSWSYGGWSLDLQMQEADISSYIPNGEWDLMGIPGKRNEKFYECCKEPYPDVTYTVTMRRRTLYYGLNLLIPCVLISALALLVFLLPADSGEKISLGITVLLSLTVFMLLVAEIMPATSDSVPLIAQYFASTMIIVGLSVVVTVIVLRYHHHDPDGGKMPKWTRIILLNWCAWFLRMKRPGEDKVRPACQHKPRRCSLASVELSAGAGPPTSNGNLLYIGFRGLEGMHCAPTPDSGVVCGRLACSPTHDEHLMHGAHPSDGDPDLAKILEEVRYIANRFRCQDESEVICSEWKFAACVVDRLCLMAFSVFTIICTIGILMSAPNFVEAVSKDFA
Sequence of Human α4β2 (P43681 29-627 limits assumed): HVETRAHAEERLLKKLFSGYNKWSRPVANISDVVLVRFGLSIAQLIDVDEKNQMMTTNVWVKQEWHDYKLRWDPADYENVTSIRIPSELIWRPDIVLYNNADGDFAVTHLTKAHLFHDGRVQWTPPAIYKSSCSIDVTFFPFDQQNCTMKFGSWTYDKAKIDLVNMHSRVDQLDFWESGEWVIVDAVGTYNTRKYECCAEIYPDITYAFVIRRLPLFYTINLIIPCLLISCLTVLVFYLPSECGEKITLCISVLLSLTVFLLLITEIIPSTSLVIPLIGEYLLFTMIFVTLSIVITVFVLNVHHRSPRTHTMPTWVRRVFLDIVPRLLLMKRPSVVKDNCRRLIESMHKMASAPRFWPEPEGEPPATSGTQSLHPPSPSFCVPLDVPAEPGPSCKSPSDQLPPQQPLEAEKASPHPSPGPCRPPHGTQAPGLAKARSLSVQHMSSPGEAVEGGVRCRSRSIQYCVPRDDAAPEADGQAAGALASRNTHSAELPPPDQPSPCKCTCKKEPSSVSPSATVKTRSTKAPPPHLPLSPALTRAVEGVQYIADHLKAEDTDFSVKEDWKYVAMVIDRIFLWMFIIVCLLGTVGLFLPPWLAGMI
Sequence of Human α4β2 (P17787 26-502): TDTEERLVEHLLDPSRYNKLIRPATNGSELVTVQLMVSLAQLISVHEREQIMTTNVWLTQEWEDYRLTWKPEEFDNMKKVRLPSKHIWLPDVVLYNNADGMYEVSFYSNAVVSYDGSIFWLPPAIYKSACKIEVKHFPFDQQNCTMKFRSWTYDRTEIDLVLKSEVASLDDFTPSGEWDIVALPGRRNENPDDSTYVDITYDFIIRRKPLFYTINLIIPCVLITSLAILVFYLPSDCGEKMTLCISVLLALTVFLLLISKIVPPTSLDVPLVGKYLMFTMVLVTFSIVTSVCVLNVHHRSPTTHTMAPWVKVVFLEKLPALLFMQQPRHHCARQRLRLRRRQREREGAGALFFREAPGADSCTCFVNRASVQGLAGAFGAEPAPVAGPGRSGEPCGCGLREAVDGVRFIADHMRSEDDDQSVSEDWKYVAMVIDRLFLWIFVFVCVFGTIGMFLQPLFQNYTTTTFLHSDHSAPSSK

Regarding `O=C(c1ccc(Br)o1)N1C[C@@H]2CN[C@@H](C2)C1` [(1S,5S)-3-(5-bromofuran-2-ylcarbonyl)-3,6-diazabicyclo[3.2.1]octane], in assay [1], the “activity in NOR (recognition index)” value was “active”.

In the case of `O=C(c1ccoc1)N1C[C@H]2CN[C@H](C2)C1`, the Ki – broadly, a measure of affinity in units of concentration, obtained from inhibition or displacement – is 10.5 nM in assay [2] (read-out: Human α4β2 Ki) and 10.6 nM in assay [4]. Also, the inhibition at 5 µM in assay [3] is at most 50%.

On to `O=C(c1cc(Br)no1)N1CC2CNCC1C2` (stereo not shown), for which the Ki in assay [2] worked out at 14.3 nM; in assay [4] (setting [5]), 172 nM. Moreover, the inhibition at 5 µM in assay [3] was at most 50%.

In the case of `O=C(c1ccco1)N1CC2CCNC2C1` (stereo not shown), the inhibition constant Ki was 789 nM in assay [2] (read-out: Human α4β2 Ki) and 832 nM in assay [4] (setting [5]). The inhibition at 5 µM in assay [3] was at most 50%.

As for `O=C(c1ccco1)N1CC2CNC(C2)C1` (stereo not shown), the Ki was 23.9 nM in assay [2] (read-out: Human α4β2 Ki) and 19.2 nM in assay [4]. Moreover, the inhibition at 5 µM in assay [3] was at most 50%.

On to `Cc1cc(C(=O)N2C[C@@H]3CN[C@@H](C3)C2)on1`, for which the Ki in assay [2] amounted to 76.1 nM; in assay [4] (setting [5]), 104 nM. Moreover, the inhibition at 5 µM in assay [3] is at most 50%.

As to `O=C(c1cccs1)N1C[C@H]2CN[C@H](C2)C1`, the results for the Ki in assay [2] (read-out: Human α4β2 Ki) and in assay [4] were 7.2 nM and 5.9 nM, respectively. Moreover, the inhibition at 5 µM in assay [3] was at most 50%.

Take `Cc1nocc1C(=O)N1CC2CCNCC2C1` (stereo not shown): the inhibition constant (Ki) in assay [2] (read-out: Human α4β2 Ki) was 892 nM; in assay [4] (setting [5]), 882 nM. Also, in assay [3], the inhibition at 5 µM was at most 50%.

Consider `O=C(c1ccc(Br)o1)N1C[C@@H]2CN[C@@H](C2)C1` [drawing 16], for which the Ki in assay [2] (read-out: Human α4β2 Ki) worked out at 42.9 nM; in assay [4], 38.5 nM. In addition, in assay [3], the inhibition at 5 µM was at most 50%.

Consider `O=C(c1ccc(F)o1)N1C[C@@H]2CN[C@@H](C2)C1`, for which the Ki in assay [2] (read-out: Human α4β2 Ki) worked out at 14.5 nM; in assay [4] it was 9.3 nM. In assay [3], the inhibition at 5 µM is at most 50%.
